The text below walks through data of article PMC7070167, “Cell‐permeable high‐affinity tracers for Gq proteins provide structural insights, reveal distinct binding kinetics and identify small molecule inhibitors” (British Journal of Pharmacology, 2020).

Like-named read-outs stand apart in the source and are kept apart here. *1 amine or outer side, *2 acyl side, *3 side chain or, on linkers, in order; H or OH if unused. Where a SMILES comes first, the peptide text is derived from it. Bridges are numbered along the chain shown (N, C = ends). [ ]: non-standard residue; d: D form. The star is where a group is joined. Leu(3R-O(AcLeu(3R-OH))) = CC(=O)N[C@H](C(=O)O[C@H](C(C)C)[C@H](N)C(=O)O)[C@H](O)C(C)C; Leu(3R-OH,Nα-propionyl) = CCC(=O)N[C@H](C(=O)*)[C@H](O)C(C)C; X1 = CC(C)[C@@H](O[*:3])[C@H](N[*:1])C(=O)[*:2]; NMeT = CN[C@H](C(=O)O)[C@@H](C)O; dPhLac = O=C(O)[C@H](O)Cc1ccccc1; NMeA = CN[C@@H](C)C(=O)O; NMeDha = C=C(NC)C(=O)O

The target in experiment [1] is T1, mouse Gαq (Mus musculus, UniProt P21279, D130A/E125D/N126V/V129Y/Y128D).
T1 construct: expressed in transfected cells; membrane preparations
T1 sequence (P21279 1-359 E125D/N126V/Y128D/V129Y/D130A): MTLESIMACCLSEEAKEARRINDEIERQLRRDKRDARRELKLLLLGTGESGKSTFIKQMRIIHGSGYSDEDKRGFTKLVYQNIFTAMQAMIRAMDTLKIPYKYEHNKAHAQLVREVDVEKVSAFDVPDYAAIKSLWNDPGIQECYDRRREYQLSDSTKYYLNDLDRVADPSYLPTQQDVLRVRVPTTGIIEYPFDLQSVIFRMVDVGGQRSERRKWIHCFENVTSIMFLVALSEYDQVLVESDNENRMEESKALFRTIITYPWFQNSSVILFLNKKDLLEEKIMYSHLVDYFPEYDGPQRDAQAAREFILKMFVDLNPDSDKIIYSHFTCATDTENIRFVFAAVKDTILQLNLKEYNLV
Nature of the experiment: Competition binding at membranes of HEK-CRISPR-Cas9-Gαq-KO cells expressing Gαq. The method, then:
(§1) cDNAs encoding for the α‐subunits of the human G11, G14, G15 and mouse Gq guanine nucleotide‐binding proteins in a pcDNA3.1(+) vector were obtained from E. Kostenis. CRISPR/Cas9‐Gαq‐knockout (KO) HEK293 cells were from M. Yamaguchi. The protein sequences of the human and mouse Gαq proteins differ only by one amino acid in position 171 (alanine in human and serine in mouse). […]. After 16 hr, 3 ml of DMEM containing 10% FBS, 1% of a penicillin/streptomycin solution (final concentrations: penicillin = 100 U·ml^−1, streptomycin = 0.1 mg·ml^−1), and sodium butyrate (5 mM) was added to the packaging cells. They were kept at 32°C and 5% CO2 for 48 hr, during which the viral vectors containing the receptor sequence were produced and released into the surrounding medium. These were harvested, filtered ([…] filter pore diameter), and added to HEK293 cells that had previously been modified via CRISPR/Cas9 genome editing to lack Gαq expression. Polybrene solution (6 μl, 4 mg·ml^−1 in H2O, filtered) was added. After 2.5 hr, the virus‐containing medium was discarded, and DMEM supplemented with 10% FBS and 1% of a penicillin/streptomycin solution (final concentrations: penicillin = 100 U·ml^−1, streptomycin = 0.1 mg·ml^−1) was given to the cells. These were incubated for 2 days, followed by selection of successfully transfected cells with geneticin resistance by adding G418 (200 μg·ml^−1) to the medium. The cells were cultured in these media at 37°C and 10% CO2 until membrane preparations were generated.
(§2) Recombinant HEK cells were cultured to 70% of confluence. The culture medium was discarded, and cells were washed once with approximately 5 ml of PBS. Dishes were stored at −20°C until further use. After defrosting, cells were detached with a rubber scraper after adding 5‐mM Tris–HCl, 2‐mM EDTA, pH 7.4. The collected cell suspension was homogenized using an Ultra‐Turrax® for 1 min at a speed level of 4. The cell suspension was transferred into tubes and centrifuged for 10 min at 1,000 g, 4°C. The pellet (P1) was discarded, and the supernatant was centrifuged for 45 min at 48,400 g, 4°C. The resulting supernatant was discarded, and the pellet (P2) was resuspended in 50‐mM Tris–HCl, pH 7.4, and centrifuged again for 45 min at 48,400 g, 4°C. This step was repeated once again, and the suspension was subsequently homogenized using an Ultra‐Turrax® for 1 min at a speed level of 4 (IKA Laborechnik), transferred into cryovials, and stored at −80°C (for up to several months). […]
(§3) The experiments were performed in 50‐mM Tris–HCl buffer, pH 7.4. […] Non‐specific binding was determined in the presence of 5‐μM FR. […] Luma Safe® scintillation cocktail (2.5 ml) was added, and after 6 hr of incubation, the samples were counted for 1 min each, using a liquid scintillation counter (counting efficiency 53%). […]

Experiment [2] deals with T2, human Gα14 (Homo sapiens, UniProt O95837).
T2 construct: expressed in transfected cells; membrane preparations
T2 sequence (O95837 1-355): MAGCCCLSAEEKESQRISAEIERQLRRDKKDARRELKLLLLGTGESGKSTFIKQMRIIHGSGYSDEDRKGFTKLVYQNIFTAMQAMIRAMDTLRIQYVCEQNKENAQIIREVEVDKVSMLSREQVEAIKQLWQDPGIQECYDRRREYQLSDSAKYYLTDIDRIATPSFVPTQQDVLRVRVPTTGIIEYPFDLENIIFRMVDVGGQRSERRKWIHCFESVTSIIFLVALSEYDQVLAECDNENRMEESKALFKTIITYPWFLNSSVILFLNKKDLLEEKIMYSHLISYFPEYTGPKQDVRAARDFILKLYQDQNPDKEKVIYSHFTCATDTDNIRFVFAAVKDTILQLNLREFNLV
Nature of the experiment: Competition binding at membranes of HEK-CRISPR-Cas9-Gαq-KO cells expressing Gα14. The method, then: as §1, §2, §3

As for `C=C1C(=O)N[C@@H](C)C(=O)N(C)[C@@H](C)C(=O)N[C@@H]([C@H](OC(=O)[C@@H](NC(C)=O)[C@H](O)C(C)C)C(C)C)C(=O)N(C)[C@@H]([C@@H](C)OC)C(=O)O[C@H](C)[C@H](NC(C)=O)C(=O)O[C@H](Cc2ccccc2)C(=O)N1C` [YM, YM‐254890] (Ac-T[dPhLac][NMeDha]A[NMeA][Leu(3R-O(AcLeu(3R-OH)))][NMeT](Me); ester 1-C), the “Pseudo-Bmax ± SD” value in experiment [1] (YM versus [³H]PSB-16254 (5 nM), 37°C, Gq) is given as 6.04 ± 1.43 pmol/mg; in experiment [2] (YM versus [³H]PSB-16254 (5 nM), 37°C, G14), 3.18 ± 0.48 pmol/mg. Further, the IC50 in experiment [1] (YM versus [³H]PSB-16254 (5 nM), 37°C, Gq, read-out: pIC50 ± SD (converted)) is 6.17 nM; in experiment [2] (YM versus [³H]PSB-16254 (5 nM), 37°C, G14, read-out: pIC50 ± SD (converted)), 6.61 nM.
Take `C=C1C(=O)N[C@@H](C)C(=O)N(C)[C@@H](C)C(=O)N[C@@H]([C@H](OC(=O)[C@@H](NC(=O)CC)[C@H](O)C(C)C)C(C)C)C(=O)N(C)[C@@H]([C@@H](C)OC)C(=O)O[C@H](C(C)C)[C@H](NC(C)=O)C(=O)O[C@H](Cc2ccccc2)C(=O)N1C` [FR, FR900359] (Ac-[X1][dPhLac][NMeDha]A[NMeA][X1](Leu(3R-OH,Nα-propionyl))[NMeT](Me); ester 1-C): the IC50 in experiment [1] is 13.2 nM; in experiment [2], 10 nM. The “Pseudo-Bmax ± SD” value in experiment [1] (FR versus [³H]PSB-15900 (5 nM), 37°C, Gq) is on record as 6.09 ± 0.59 pmol/mg; in experiment [2] (FR versus [³H]PSB-15900 (5 nM), 37°C, G14), 4.37 ± 0.71 pmol/mg.
